Source: US8853193B2, “Thienopyrimidines containing a substituted alkyl group for pharmaceutical compositions” (Boehringer Ingelheim International GmbH, priority 2010, dated 2014)
pIC50: −log10 of the molar value. Counter-ions that a name gives are not always drawn.

Biological target: human Mnk2a (Homo sapiens (Human), UniProt Q9HBH9)
Assay: Mnk2a in vitro kinase assay (indirect competitive fluorescence polarization)
Type: biochemical
Details: pre-activated GST-Mnk2a 2.5 nM, 20 μM ATP, 30 μM substrate peptide; read-out: MNK2 IC50
Outline: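 GST-tagged human Mnk2a expressed in E. coli and glutathione-purified, then activated at 2.5 μM with 150 nM pre-activated NHis-ERK2 and 50 μM ATP in HEPES/KOH pH 7.4, MgCl2, DTT, Brij 78 for 45 min at 30 °C. Phospho-peptide product read by indirect competitive fluorescence polarization against fluorophore-labelled phospho-peptide bound to phospho-specific antibody.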

Sequence of human Mnk2a (Q9HBH9 whole entry): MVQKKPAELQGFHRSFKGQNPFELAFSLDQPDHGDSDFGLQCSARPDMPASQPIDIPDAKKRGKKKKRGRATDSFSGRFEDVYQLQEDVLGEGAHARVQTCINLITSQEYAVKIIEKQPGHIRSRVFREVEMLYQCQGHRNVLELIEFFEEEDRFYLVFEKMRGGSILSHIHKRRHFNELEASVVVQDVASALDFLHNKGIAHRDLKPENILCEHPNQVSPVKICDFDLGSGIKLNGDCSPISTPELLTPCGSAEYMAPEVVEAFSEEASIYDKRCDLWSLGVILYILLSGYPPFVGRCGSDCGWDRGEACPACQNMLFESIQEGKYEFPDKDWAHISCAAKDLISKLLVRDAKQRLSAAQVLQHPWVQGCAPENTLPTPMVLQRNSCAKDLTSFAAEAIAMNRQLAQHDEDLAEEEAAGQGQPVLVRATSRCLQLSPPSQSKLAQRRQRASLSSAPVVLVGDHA

Row | pIC50 | Structure (SMILES)
1 | 7.36 | Cc1c(C(=O)NCCCN2CCOCC2)sc2ncnc(Nc3cccnc3OC(C)C)c12 [Compound 36-4]
2 | 7.96 | Cc1c(C(N)=O)sc2ncnc(Nc3ccc(F)cc3OC(C)C#N)c12 (centres unmarked) [Compound 54]
3 | 7.60 | Cc1c(C(=O)NCC#CCN(C)C)sc2ncnc(Nc3ccc(C#N)cc3OC(CF)CF)c12 [Compound 52, 4-(4-Cyano-2-(2-fluoro-1-fluoromethyl-ethoxy)-phenylamino]-5-methyl-thieno[2,3-d]pyrimidine-6-carboxylic acid (4-dimethylamino-but-2-ynyl)-amide]
4 | 7.59 | COCC(CF)Oc1cc(F)ccc1Nc1ncnc2sc(C(=O)NCCO)c(C)c12 (centres unmarked) [Compound 32-23]
5 | 7.62 | Cc1c(C(=O)NCc2cn(C)cn2)sc2ncnc(Nc3cccnc3OC(C)C)c12 [Compound 36-15, 4-(2-Isopropoxypyridin-3ylamino)-5-methyl-N-((1-methyl-1H-imidazol-4-yl)methyl) thieno[2,3-d]pyrimidine-6-carboxamide]
6 | 7.27 | Cc1c(C(=O)NCC(C)O)sc2ncnc(Nc3cccnc3OC(C)C)c12 (centres unmarked) [Compound 36-13, N-(2-Hydroxypropyl)-4-(2-isopropoxypyridin-3ylamino)-5-methylthieno[2,3-d]pyrimidine-6-carboxamide]
7 | 7.51 | Cc1c(C(=O)NCCO)sc2ncnc(Nc3cccnc3OC(C)C)c12 [Compound 36-12, N-(2-Hydroxyethyl)-4-(2-isopropoxypyridin-3ylamino)-5-methylthieno[2,3-d]pyrimidine-6-carboxamide]
8 | 7.46 | COCC(C)Oc1cc(F)ccc1Nc1ncnc2sc(C(=O)NCCCN(C)C)c(C)c12 (centres unmarked) [Compound 32-35]
9 | 7.51 | CCNC(=O)C(C)Oc1cc(F)ccc1Nc1ncnc2sc(C(=O)NCCO)c(C)c12 (centres unmarked) [Compound 41]
10 | 6.92 | COC(=O)c1sc2ncnc(Nc3ccc(F)cc3OC(C)C(=O)NCCN)c2c1C (centres unmarked) [Compound 58, 4-{2-[1-(2-Amino-ethylcarbamoyl)-ethoxyl]-4-fluoro-phenylamino}-5-methyl-thieno[2,3-d]pyrimidine-6-carboxylic acid methyl ester]
11 | 6.50 | COC(=O)c1sc2ncnc(Nc3ccc(F)cc3OC(C)C(=O)NCCCN)c2c1C (centres unmarked) [Compound 56, 4-{2-[1-(3-Amino-propylcarbamoyl)-ethoxy]-4-fluoro-phenylamino}-5-methyl-thieno[2,3-d]pyrimidine-6-carboxylic acid methyl ester]
12 | 8.15 | Cc1c(C(=O)NCC#N)sc2ncnc(Nc3ccc(C#N)cc3OC(CF)CF)c12 [Compound 53, 4-(4-Cyano-2-(2-fluoro-1-fluoromethyl-ethoxy)-phenylamino]-5-methyl-thieno[2,3-d]pyrimidine-6-carboxylic acid cyanomethyl-amide]
13 | 7.60 | COCC(CF)Oc1cc(F)ccc1Nc1ncnc2sc(C(=O)NCCCN(C)C)c(C)c12 (centres unmarked) [Compound 32-24]

Further lines, the compound ahead of its results:

Row | Structure (SMILES) | pIC50
14 | COC(=O)c1sc2ncnc(Nc3cccnc3OC(C)CN)c2c1C (centres unmarked) [Compound 11-2, Methyl 4-(2-(1-aminopropan-2yloxy)-pyridin-3-ylamino)-5-methyl-thieno[2,3-d]pyrimidine-6-carboxylate hydrochloride] | 6.38
15 | COC(=O)c1sc2ncnc(Nc3ccc(F)cc3OC(C)CCNC(C)=O)c2c1C (centres unmarked) [Compound 13-2, Methyl 4-(2-(4-acetamidobutan-2-yloxy)-4-fluorophenyl-amino)-5-methyl-thieno[2,3-d]pyrimidine-6-carboxylate] | 6.33
16 | COC(=O)c1sc2ncnc(Nc3ccc(F)cc3OC(CN)CNC(C)=O)c2c1C (centres unmarked) [Compound 19-1, Methyl 4-(2-(1-acetamido-3-aminopropan-2-yloxy)-4-fluorophenylamino)-5-methylthieno[2,3-d]pyrimidine-6-carboxylate trifluoroacetate] | 5.82
17 | COC(=O)c1sc2ncnc(Nc3ccc(F)cc3OC(C)CCN)c2c1C (centres unmarked) [Compound 12, Methyl 4-(2-(4-aminobutan-2yloxy)-4-fluorophenylamino)-5-methyl-thieno[2,3-d]pyrimidine-6-carboxylate hydrochloride] | 7.28
18 | COC(=O)c1sc2ncnc(Nc3ccc(F)cc3OC(C)CNC(C)=O)c2c1C (centres unmarked) [Compound 3-4, Methyl 4-(2-(1-acet-amidopropan-2-yloxy)-4-fluorophenylamino)-5-methylthieno[2,3-d]pyrimidine-6-carboxylate] | 6.58
19 | Cc1c(C(=O)NCCO)sc2ncnc(Nc3cccnc3OCC(C)F)c12 (centres unmarked) [Compound 27-3, 4-(2-(2-Fluoropropoxy)pyridin-3-ylamino)-N-(2-hydroxyethyl)-5-methyl-thieno[2,3-d]pyrimidine-6-carboxamide] | 7.24
20 | COCC(C)Oc1ncccc1Nc1ncnc2sc(C(=O)NCCCN(C)C)c(C)c12 (centres unmarked) [Compound 28-5, N-(3-(di-methylamino)propyl)-4-(2-(1-methoxy-propan-2-yloxy)pyridin-3-ylamino)-5-methlthieno-[2,3-d]pyrimi-dine-6-carboxamide hydrochloride] | 7.03
21 | Cc1c(C(=O)NCCCN(C)C)sc2ncnc(Nc3ccc(F)cc3OCC3(CC#N)CC3)c12 [Compound 32-15] | 7.11
22 | Cc1c(C(N)=O)sc2ncnc(Nc3cccnc3OC(C)C(F)(F)F)c12 (centres unmarked) [Compound 21-3, 5-Methyl-4-(2-(1,1,1-trifluoropropan-2-yloxy)pyridin-3-ylamino)thieno[2,3-d]pyrimidine-6-carboxamide] | 7.96
23 | Cc1c(C(=O)NCCCN(C)C)sc2ncnc(Nc3ccc(F)cc3OCC3CC3(F)F)c12 (centres unmarked) [Compound 32-22] | 7.44
24 | Cc1c(C(=O)O)sc2ncnc(Nc3cccnc3OCC(F)F)c12 [Compound 30-2, 4-(2-(2,2-Difluoroethoxy)pyridin-3-ylamino)-5-methylthieno[2,3-d]pyrimidine-6-carboxylic acid] | 7.70
25 | Cc1c(C(N)=O)sc2ncnc(Nc3ccc(F)cc3OCC(F)F)c12 [Compound 32-17] | 7.80
26 | COCC(CF)Oc1cc(F)ccc1Nc1ncnc2sc(C(=O)O)c(C)c12 (centres unmarked) [Compound 32-6] | 7.64
27 | Cc1c(C(N)=O)sc2ncnc(Nc3ccc(F)cc3O[C@@H](C)CNC(=O)OC(C)(C)C)c12 (racemic) [Compound 6-1, (R) and (S)-tert-butyl 2-(2-(6-carbamoyl-5-methyl-thieno[2,3-d]pyrimidin-4-ylamino)-5-fluorophenoxy)propylcarbamate] | 6.79
28 | Cc1c(C(=O)O)sc2ncnc(Nc3ccc(F)cc3OCC(F)F)c12 [Compound 32-4] | 7.89

Tested on: Mnk2 (Mnk2a or Mnk2b) or Mnk1
Assay: not given
Details: cells transfected with Mnk2 (Mnk2a or Mnk2b) or Mnk1; cited from earlier work

Row | Structure (SMILES) | reduction of phosphorylated eIF4E
29 | Nc1ncnc2n[nH]c(Nc3ccc(F)cc3)c12 [CGP57380] | strong reduction of phosphorylated eIF4E
